Columns and labels:
Test in all cases: viability relative to DMSO control (fraction); higher = less drug effect (more viable cells)
Settings in all cases: 48 h
[1] = compound: COc1cc(OC)c(/C=C/S(=O)(=O)Cc2ccc(OC)c(NCC(=O)O)c2)c(OC)c1 [Rigosertib]
Method in brief: (§1)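 Cells were incubated for 48 h at 37 °C and 5% CO2 in RPMI-1640 with penicillin/streptomycin, L-glutamine and human serum, at 4 × 10^4 cells per well in 384-well plates with compounds pre-plated at five concentrations, one well each. These were primary mononuclear tumour cells, fresh or cryopreserved, Ficoll-isolated from blood or bone marrow or obtained from processed lymph node. Viability values are CellTiter-Glo luminescence relative to the median of 16 inner DMSO wells.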

[2] = compound: C1=N/C2=N/c3ccc(OCCN4CCCC4)c(c3)COC/C=C/COCc3cccc(c3)C(=C1)N2 [Pacritinib]
Method in brief: as §1

[3] = compound: CC(C)C[C@H](NC(=O)[C@H](Cc1ccccc1)NC(=O)c1cnccn1)B(O)O [Bortezomib]
Method in brief: as §1

[4] = compound: COC1=CC(c2cc3ccccc3[nH]2)=N/C1=C\c1[nH]c(C)cc1C [Obatoclax mesylate]
Method in brief: as §1

[5] = compound: Cc1cn(-c2cc(NC(=O)c3ccc(C)c(Nc4nccc(-c5cccnc5)n4)c3)cc(C(F)(F)F)c2)cn1 [Nilotinib]
Method in brief: as §1

[6] = compound: OC[C@H]1O[C@@H](n2cnc3c2N=CNC[C@H]3O)C[C@@H]1O [Pentostatin]
Method in brief: as §1

[7] = compound: Cn1c(=O)n(-c2ccc(C(C)(C)C#N)cc2)c2c3cc(-c4cnc5ccccc5c4)ccc3ncc21 [BEZ235]
Method in brief: as §1

[8] = compound: COc1nc(N)nc2c1ncn2[C@@H]1O[C@H](CO)[C@@H](O)[C@@H]1O [Nelarabine]
Method in brief: as §1

[9] = compound: CC[C@]1(O)C[C@H]2CN(CCc3c([nH]c4ccccc34)[C@@](C(=O)OC)(c3cc4c(cc3OC)N(C=O)[C@H]3[C@@](O)(C(=O)OC)[C@H](OC(C)=O)[C@]5(CC)C=CCN6CC[C@]43[C@@H]65)C2)C1 [Vincristine]
Method in brief: as §1

[10] = compound: Nc1nc2n[nH]nc2c(=O)[nH]1 [8-Azaguanin]
Method in brief: as §1

[11] = compound: C#CCC(Cc1cnc2nc(N)nc(N)c2n1)c1ccc(C(=O)N[C@@H](CCC(=O)O)C(=O)O)cc1 [Pralatrexate]
Method in brief: as §1

[12] = compound: CC(C)(O)CNc1nc(Nc2ccnc(C(F)(F)F)c2)nc(-c2cccc(C(F)(F)F)n2)n1 [AG-221 (Enasidinib)]
Method in brief: as §1

[13] = compound: O=C(NCC1(c2nc(-c3ccccc3)cs2)CCOCC1)c1cccc(-c2noc(C(F)(F)F)n2)c1 [TMP269]
Method in brief: as §1

[14] = compound: O=C(CCCCCCC(=O)Nc1ccccc1)NO [Vorinostat]
Method in brief: as §1

[15] = compound: Cc1ccc(NC(=O)c2ccc(CN3CCN(C)CC3)cc2)cc1Nc1nccc(-c2cccnc2)n1 [Imatinib]
Method in brief: as §1

primary CLL patient cells (S043) showed a viability ([1]; 0.008 µM) of 0.911, a viability ([1]; 0.04 µM) of 0.919 and a viability ([1]; 0.2 µM) of 0.849. It also gave a viability ([1]; 1 µM) of 0.905, a viability ([1]; 5 µM) of 0.632 and a viability ([2]; 0.024 µM) of 0.995. It also gave a viability ([2]; 0.12 µM) of 0.918, a viability ([2]; 0.6 µM) of 0.763 and a viability ([2]; 3 µM) of 0.426. The viability ([2]; 15 µM) was 0.025, the viability ([3]; 0.008 µM) was 1.25 and the viability ([3]; 0.04 µM) was 0.894. The viability ([3]; 0.2 µM) was 1.27, the viability ([3]; 1 µM) was 0.899 and the viability ([3]; 5 µM) was 1.23. For the same test system, the viability ([4]; 0.024 µM) was 1.01, the viability ([4]; 0.12 µM) was 0.983 and the viability ([4]; 0.6 µM) was 0.708. For the same test system, the viability ([4]; 3 µM) was 0.54, the viability ([4]; 15 µM) was 0.255 and the viability ([5]; 0.016 µM) was 1.17. For the same test system, the viability ([5]; 0.08 µM) was 1.08, the viability ([5]; 0.4 µM) was 1.12 and the viability ([5]; 2 µM) was 1.06. It also gave a viability ([5]; 10 µM) of 1.22, a viability ([6]; 0.03 µM) of 0.974 and a viability ([6]; 0.15 µM) of 1.01. The viability ([6]; 0.75 µM) was 0.969, the viability ([6]; 3.75 µM) was 0.95 and the viability ([6]; 18.76 µM) was 0.86. For the same test system, the viability ([7]; 0.024 µM) was 1, the viability ([7]; 0.12 µM) was 1.01 and the viability ([7]; 0.6 µM) was 0.985. The viability ([7]; 3 µM) was 1.03, the viability ([7]; 15 µM) was 0.594 and the viability ([8]; 0.024 µM) was 1.02. For the same test system, the viability ([8]; 0.12 µM) was 1.09, the viability ([8]; 0.6 µM) was 0.98 and the viability ([8]; 3 µM) was 1.01. The viability ([8]; 15 µM) was 0.903, the viability ([9]; 0.016 µM) was 0.839 and the viability ([9]; 0.08 µM) was 0.787. The viability ([9]; 0.4 µM) was 0.707, the viability ([9]; 2 µM) was 0.546 and the viability ([9]; 10 µM) was 0.554. For the same test system, the viability ([10]; 0.032 µM) was 1.14, the viability ([10]; 0.16 µM) was 1.14 and the viability ([10]; 0.8 µM) was 0.971. For the same test system, the viability ([10]; 4 µM) was 0.722, the viability ([10]; 20 µM) was 0.49 and the viability ([11]; 0.024 µM) was 0.925. The viability ([11]; 0.12 µM) was 0.892, the viability ([11]; 0.6 µM) was 0.876 and the viability ([11]; 3 µM) was 0.891. The viability ([11]; 15 µM) was 0.836, the viability ([12]; 0.024 µM) was 0.871 and the viability ([12]; 0.12 µM) was 0.86. The viability ([12]; 0.6 µM) was 0.91, the viability ([12]; 3 µM) was 0.92 and the viability ([12]; 15 µM) was 0.816. It also gave a viability ([13]; 0.024 µM) of 0.878, a viability ([13]; 0.12 µM) of 0.925 and a viability ([13]; 0.6 µM) of 0.908. It also gave a viability ([13]; 3 µM) of 0.903, a viability ([13]; 15 µM) of 0.85 and a viability ([14]; 0.016 µM) of 1.07. For the same test system, the viability ([14]; 0.08 µM) was 0.958, the viability ([14]; 0.4 µM) was 0.905 and the viability ([14]; 2 µM) was 0.62. For the same test system, the viability ([14]; 10 µM) was 0.116.

primary AML patient cells (S055) showed a viability ([1]; 0.008 µM) of 0.972, a viability ([1]; 0.04 µM) of 1.02 and a viability ([1]; 0.2 µM) of 0.96. For the same test system, the viability ([1]; 1 µM) was 0.996, the viability ([1]; 5 µM) was 0.975 and the viability ([2]; 0.024 µM) was 0.98. It also gave a viability ([2]; 0.12 µM) of 1.01, a viability ([2]; 0.6 µM) of 0.959 and a viability ([2]; 3 µM) of 0.624. The viability ([2]; 15 µM) was 0.0399, the viability ([3]; 0.008 µM) was 0.869 and the viability ([3]; 0.04 µM) was 0.994. It also gave a viability ([3]; 0.2 µM) of 0.979, a viability ([3]; 1 µM) of 1.06 and a viability ([3]; 5 µM) of 0.998. The viability ([6]; 0.03 µM) was 1.03, the viability ([6]; 0.15 µM) was 1.03 and the viability ([6]; 0.75 µM) was 0.994. The viability ([6]; 3.75 µM) was 1.01, the viability ([6]; 18.76 µM) was 0.896 and the viability ([7]; 0.024 µM) was 0.958. It also gave a viability ([7]; 0.12 µM) of 0.743, a viability ([7]; 0.6 µM) of 0.584 and a viability ([7]; 3 µM) of 0.642. For the same test system, the viability ([7]; 15 µM) was 0.562, the viability ([8]; 0.024 µM) was 1.08 and the viability ([8]; 0.12 µM) was 1.06. For the same test system, the viability ([8]; 0.6 µM) was 1.05, the viability ([8]; 3 µM) was 1.09 and the viability ([8]; 15 µM) was 0.942. The viability ([9]; 0.016 µM) was 0.958, the viability ([9]; 0.08 µM) was 0.795 and the viability ([9]; 0.4 µM) was 0.452. For the same test system, the viability ([9]; 2 µM) was 0.374, the viability ([9]; 10 µM) was 0.312 and the viability ([10]; 0.032 µM) was 0.968. For the same test system, the viability ([10]; 0.16 µM) was 1.01, the viability ([10]; 0.8 µM) was 0.703 and the viability ([10]; 4 µM) was 0.507. For the same test system, the viability ([10]; 20 µM) was 0.387, the viability ([11]; 0.024 µM) was 0.998 and the viability ([11]; 0.12 µM) was 0.942. It also gave a viability ([11]; 0.6 µM) of 0.979, a viability ([11]; 3 µM) of 0.918 and a viability ([11]; 15 µM) of 0.971. For the same test system, the viability ([12]; 0.024 µM) was 0.899, the viability ([12]; 0.12 µM) was 0.801 and the viability ([12]; 0.6 µM) was 0.968. For the same test system, the viability ([12]; 3 µM) was 0.909, the viability ([12]; 15 µM) was 0.91 and the viability ([13]; 0.024 µM) was 0.986. For the same test system, the viability ([13]; 0.12 µM) was 1.02, the viability ([13]; 0.6 µM) was 0.982 and the viability ([13]; 3 µM) was 0.996. For the same test system, the viability ([13]; 15 µM) was 0.922, the viability ([15]; 0.08 µM) was 1.07 and the viability ([15]; 10 µM) was 1.16. The viability ([14]; 0.016 µM) was 1.05, the viability ([14]; 0.08 µM) was 1.04 and the viability ([14]; 0.4 µM) was 0.929. It also gave a viability ([14]; 2 µM) of 0.586 and a viability ([14]; 10 µM) of 0.118.

Reference: the supplement of paper PMC10733146
